This is an account of results in US11939319B2, “Pyridinyl and pyrazinyl-(asa)indolsulfonamides” (UCB Pharma GmbH, priority 2018, dated 2024).

Where only a bound is given, the exact number is not on record here.

For the assay, the target named is GPR17 (Homo sapiens, UniProt Q13304). As to the kind of experiment: cAMP accumulation functional assay (HTRF) in CHO hGPR17 cells. The class given is cell-based. The arrangement: host or cells: Flp-In T-REx CHO cells, expression induced with doxycycline. The following applies: Schild analysis against MDL29,951, 5 μM forskolin, activity range, read-out: cAMP assay pA2 (converted). As to the method: Flp-In T-REx CHO cells stably expressing human GPR17 receptor (CHO hGPR17) from Evi Kostenis' lab (Bonn University, Germany) were cultured at 37° C. in a humidified atmosphere of 5% CO2. Cells were grown in DMEM with Nutrient Mixture F-12 supplemented with hygromycin B (500 μg/ml) and blasticidin (30 μg/ml). Expression from the Flp-In locus was induced by treatment with doxycycline (1 μg/ml) for 16-20 h prior assays.
Chain of GPR17 (Q13304 29-367 limits assumed): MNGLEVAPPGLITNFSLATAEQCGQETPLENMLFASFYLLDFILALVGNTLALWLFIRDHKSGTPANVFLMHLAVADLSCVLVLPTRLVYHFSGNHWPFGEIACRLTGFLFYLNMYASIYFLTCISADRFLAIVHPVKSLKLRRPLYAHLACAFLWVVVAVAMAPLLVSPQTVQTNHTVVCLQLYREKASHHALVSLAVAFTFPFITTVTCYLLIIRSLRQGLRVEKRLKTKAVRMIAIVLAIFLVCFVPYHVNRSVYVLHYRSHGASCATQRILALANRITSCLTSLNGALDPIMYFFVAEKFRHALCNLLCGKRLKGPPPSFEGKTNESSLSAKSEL
GPR17 activation can also recruit Gi-type G-protein signaling, resulting in a decrease of intracellular cyclic adenosine monophosphate (cAMP). Intracellular cAMP changes can be measured using the HTRF cAMP dynamic assay kit from CisBio (Codolet, France). Using homogenous time-resolved fluorescence technology (HTRF), the assay is based on competition between native cAMP produced by cells and cAMP labelled with the dye d2. The tracer binding was determined by an anti-cAMP antibody labeled with cryptate.
CHO hGPR17 were detached with PBS containing EDTA and dispatched in black 384-well plates with 5,000 cells per well. Cells were first incubated for 30 minutes at room temperature in HBSS Hepes (pH 7.4) containing vehicle or varying concentrations of test GPR17 antagonist/inverse agonist compounds. Then, a dose response curve of MDL29,951 GPR17 agonist (typically from 10^−5M to 10^−10M) was added on vehicle and on each test GPR17 antagonist/inverse agonist compound concentration in a final volume of 20 μL HBSS Hepes buffer (pH 7.4) containing 1% DMSO, 5 μM forskolin and 0.1 mM IBMX. After 60 minutes incubation at room temperature, the reaction is terminated and the cells lysed by adding the d2 detection reagent and the cryptate reagent in 10 μL lysis buffer each according to manufacturer's instructions. After 60 minutes incubation, changes in cAMP concentrations are measured according to manufacturer's instructions using an Envision plate reader with laser excitation. All incubations were performed in duplicate. Data was analyzed using GraphPad Prism software using the 4-parameter logistic equation to measure MDL29,951 pEC50s in absence and presence of GPR17 antagonist/inverse agonist test compounds. Dose ratio (DR) were plotted against antagonist concentrations and Schild analysis provided estimated affinity pA2 of GPR17 antagonist/inverse agonist test compounds.
The activities of the Example compounds tested are depicted in the table below. The activity ranges A, B and C refer to pA2 values in the cAMP assay as follows: “A”: pA2 6.5≤x<7.5, “B”: pA2 7.5≤x<8.5, “C”: 8.5≤pA2.
On to `COc1nc(OC(F)F)c(F)cc1NS(=O)(=O)c1c[nH]c2cc(Cl)ccc12` [Example I-9, 6-chloro-N-[6-(difluoromethoxy)-5-fluoro-2-methoxypyridin-3-yl]-1H-indole-3-sulfonamide], for which the Kb is no more than 3.16 nM.

As for `COc1nc(Cl)cnc1NS(=O)(=O)c1c[nH]c2cc(Cl)ccc12` [Example I-11, 6-chloro-N-(5-chloro-3-methoxypyrazin-2-yl)-1H-indole-3-sulfonamide], the Kb was no more than 3.16 nM.

Regarding `COc1nc(OCCF)c(F)cc1NS(=O)(=O)c1c[nH]c2cc(Cl)ccc12` [Example I-12, 6-chloro-N-[5-fluoro-6-(2-fluoroethoxy)-2-methoxypyridin-3-yl]-1H-indole-3-sulfonamide], the Kb is no more than 3.16 nM.

With `COc1nc(OCCF)ccc1NS(=O)(=O)c1c[nH]c2cc(Cl)ccc12` [Example I-13, 6-chloro-N-[6-(2-fluoroethoxy)-2-methoxypyridin-3-yl]-1H-indole-3-sulfonamide], the Kb was 3.16 to 31.6 nM.

`COc1nc(OC(F)F)c(F)cc1NS(=O)(=O)c1c[nH]c2cc(C(F)F)ccc12` [Example I-16, N-[6-(difluoromethoxy)-5-fluoro-2-methoxypyridin-3-yl]-6-(difluoromethyl)-1H-indole-3-sulfonamide]: the Kb was no more than 3.16 nM.

Take `COc1nc(OC(F)F)c(F)cc1NS(=O)(=O)c1c[nH]c2nc(Cl)ccc12` [Example I-22, 6-chloro-N-[6-(difluoromethoxy)-5-fluoro-2-methoxypyridin-3-yl]-1H-pyrrolo[2,3-b]pyridine-3-sulfonamide]: the Kb is no more than 3.16 nM.

Regarding `O=S(=O)(Nc1cnc(Cl)cc1Cl)c1c[nH]c2cc(Cl)ccc12` [Example I-26, 6-chloro-N-(4,6-dichloropyridin-3-yl)-1H-indole-3-sulfonamide], the Kb was 31.6 to 316 nM.

In the case of `COc1nc(Cl)ccc1NS(=O)(=O)c1c[nH]c2cc(C(F)F)ccc12` [Example I-27, N-(6-chloro-2-methoxypyridin-3-yl)-6-(difluoromethyl)-1H-indole-3-sulfonamide], the Kb was 31.6 to 316 nM.

On to `COc1nc(Cl)ccc1NS(=O)(=O)c1c[nH]c2nc(C(F)F)ccc12` [Example I-28, N-(6-chloro-2-methoxypyridin-3-yl)-6-(difluoromethyl)-1H-pyrrolo[2,3-b]pyridine-3-sulfonamide], for which the Kb is 31.6 to 316 nM.

With `COc1nc(Cl)c(F)cc1NS(=O)(=O)c1c[nH]c2nc(C(F)F)ccc12` [Example I-29, N-(6-chloro-5-fluoro-2-methoxypyridin-3-yl)-6-(difluoromethyl)-1H-pyrrolo[2,3-b]pyridine-3-sulfonamide], the Kb is 3.16 to 31.6 nM.

Consider `O=S(=O)(Nc1cc(F)c(OCC(F)F)nc1F)c1c[nH]c2nc(C(F)F)ccc12` [Example I-30, N-[6-(2,2-difluoroethoxy)-2,5-difluoro-3-pyridyl]-6-(difluoromethyl)-1H-pyrrolo[2,3-b]pyridine-3-sulfonamide], for which the Kb was 31.6 to 316 nM.

With `COc1nc(Cl)ccc1NS(=O)(=O)c1c[nH]c2nc(Cl)ccc12` [Example I-35, 6-chloro-N-(6-chloro-2-methoxypyridin-3-yl)-1H-pyrrolo[2,3-b]pyridine-3-sulfonamide], the Kb is 31.6 to 316 nM.

On to `COc1nc(OCCF)c(F)cc1NS(=O)(=O)c1c[nH]c2nc(Cl)ccc12` [Example I-36, 6-chloro-N-[5-fluoro-6-(2-fluoroethoxy)-2-methoxypyridin-3-yl]-1H-pyrrolo[2,3-b]pyridine-3-sulfonamide], for which the Kb was no more than 3.16 nM.

With `COc1nc(OC(F)F)ccc1NS(=O)(=O)c1c[nH]c2nc(Cl)ccc12` [Example I-37, 6-chloro-N-[6-(difluoromethoxy)-2-methoxy-3-pyridyl]-1H-pyrrolo[2,3-b]pyridine-3-sulfonamide], the Kb was 3.16 to 31.6 nM.

Regarding `COc1nc(OCC(F)F)ccc1NS(=O)(=O)c1c[nH]c2cc(Cl)ccc12` [Example I-38, 6-chloro-N-[6-(2,2-difluoroethoxy)-2-methoxypyridin-3-yl]-1H-indole-3-sulfonamide], the Kb was no more than 3.16 nM.

On to `COc1ccc(NS(=O)(=O)c2c[nH]c3cc(Cl)ccc23)c(OCC(F)F)n1` [Example I-39, 6-chloro-N-[2-(2,2-difluoroethoxy)-6-methoxypyridin-3-yl]-1H-indole-3-sulfonamide], for which the Kb is 3.16 to 31.6 nM.

As to `COc1cc(OC(F)F)ncc1NS(=O)(=O)c1c[nH]c2cc(Cl)ccc12` [Example I-40, 6-chloro-N-[6-(difluoromethoxy)-4-methoxypyridin-3-yl]-1H-indole-3-sulfonamide], the Kb was 3.16 to 31.6 nM.

Take `O=S(=O)(Nc1cc(F)c(C2CC2)nc1F)c1c[nH]c2cc(Cl)ccc12` [Example I-41, 6-chloro-N-(6-cyclopropyl-2,5-difluoropyridin-3-yl)-1H-indole-3-sulfonamide]: the Kb was 3.16 to 31.6 nM.

For `COc1nc(OCC(F)F)c(F)cc1NS(=O)(=O)c1c[nH]c2cc(Cl)ccc12` [Example I-42, 6-chloro-N-[6-(2,2-difluoroethoxy)-5-fluoro-2-methoxypyridin-3-yl]-1H-indole-3-sulfonamide], the Kb is no more than 3.16 nM.

As to `COc1nc(OCCOC(F)F)c(F)cc1NS(=O)(=O)c1c[nH]c2cc(Cl)ccc12` [Example I-43, 6-chloro-N-[6-[2-(difluoromethoxy)ethoxy]-5-fluoro-2-methoxypyridin-3-yl]-1H-indole-3-sulfonamide], the Kb was no more than 3.16 nM.

With `O=S(=O)(Nc1cc(F)c(OCC(F)F)nc1F)c1c[nH]c2nc(Cl)ccc12` [Example I-44, 6-chloro-N-[6-(2,2-difluoroethoxy)-2,5-difluoropyridin-3-yl]-1H-pyrrolo[2,3-b]pyridine-3-sulfonamide], the Kb was 31.6 to 316 nM.

With `COc1nc(OCC(F)F)ccc1NS(=O)(=O)c1c[nH]c2nc(Cl)ccc12` [Example I-45, 6-chloro-N-[6-(2,2-difluoroethoxy)-2-methoxypyridin-3-yl]-1H-pyrrolo[2,3-b]pyridine-3-sulfonamide], the Kb was 3.16 to 31.6 nM.

For the compound `COc1nc(OCC(F)F)c(F)cc1NS(=O)(=O)c1c[nH]c2nc(Cl)ccc12` [Example I-46, 6-chloro-N-[6-(2,2-difluoroethoxy)-5-fluoro-2-methoxypyridin-3-yl]-1H-pyrrolo[2,3-b]pyridine-3-sulfonamide], the Kb is no more than 3.16 nM.

Consider `O=S(=O)(Nc1cc(F)c(C2CC2)nc1F)c1c[nH]c2nc(Cl)ccc12` [Example I-47, 6-chloro-N-(6-cyclopropyl-2,5-difluoropyridin-3-yl)-1H-pyrrolo[2,3-b]pyridine-3-sulfonamide], for which the Kb was 3.16 to 31.6 nM.

Take `COc1nc(OCCOC(F)F)c(F)cc1NS(=O)(=O)c1c[nH]c2nc(Cl)ccc12` [Example I-48, 6-chloro-N-[6-[2-(difluoromethoxy)ethoxy]-5-fluoro-2-methoxypyridin-3-yl]-1H-pyrrolo[2,3-b]pyridine-3-sulfonamide]: the Kb was no more than 3.16 nM.

With `COc1ncc(F)cc1NS(=O)(=O)c1c[nH]c2nc(Cl)ccc12` [Example I-49, 6-chloro-N-(5-fluoro-2-methoxypyridin-3-yl)-1H-pyrrolo[2,3-b]pyridine-3-sulfonamide], the Kb was 31.6 to 316 nM.

In the case of `COc1nc(C2CC2)c(F)cc1NS(=O)(=O)c1c[nH]c2cc(Cl)ccc12` [Example I-50, 6-chloro-N-(6-cyclopropyl-5-fluoro-2-methoxypyridin-3-yl)-1H-indole-3-sulfonamide], the Kb was no more than 3.16 nM.

Turning to `COc1nc(OCC(F)F)c(F)cc1NS(=O)(=O)c1c[nH]c2cc(OC(F)F)ccc12` [Example I-51, N-[6-(2,2-difluoroethoxy)-5-fluoro-2-methoxypyridin-3-yl]-6-(difluoromethoxy)-1H-indole-3-sulfonamide], the Kb is no more than 3.16 nM.

With `O=S(=O)(Nc1cc(F)c(OCC(F)F)nc1F)c1c[nH]c2cc(C(F)F)ccc12` [Example I-52, N-[6-(2,2-difluoroethoxy)-2,5-difluoropyridin-3-yl]-6-(difluoromethyl)-1H-indole-3-sulfonamide], the Kb is 3.16 to 31.6 nM.

As for `COc1nc(OCC(F)F)ccc1NS(=O)(=O)c1c[nH]c2nc(C(F)F)ccc12` [Example I-53, N-[6-(2,2-difluoroethoxy)-2-methoxypyridin-3-yl]-6-(difluoromethyl)-1H-pyrrolo[2,3-b]pyridine-3-sulfonamide], the Kb was 3.16 to 31.6 nM.
